Results published in patent US7122360B1, “Polypeptides, polynucleotides and uses thereof” (University of Dundee, priority 1998, dated 2006).
“Also recorded” adds a separate entry of the source.

Legend:
MAPKAP-K1 [1] = assay: NGF-induced activation of MAPKAP-K1 in PC12 cells; conditions: 50 μM PD 98059, 10 μM SB 203580
MAPKAP-K1a/b [2] = assay: Activation of MAPKAP-K1a/b in 293 cells; conditions: 50 μM PD 98059 or 10 μM SB 203580
MAPKAP-K1 [3] = assay: Activation of MAPKAP-K1 in SK-N-MC cells; format: cell-based; conditions: 50 μM PD 98059, 10 μM SB 203580
Procedure: (§1) FIG. 14. […] After cell lysis aliquots were assayed for either MSK1 (A), MAPKAP-K1 (B), MAPKAP-K2 (C) after their immunoprecipitation from the lysates or immunoblotted for phosphorylation of CREB and ATF1 (D).
(§2) Cell Culture, stimulation and cell lysis.

MSK1 [4] = assay: Activation of MSK1 by TNF in HeLa cells; format: cell-based; conditions: 50 μM PD 98059, 10 μM SB 203580, TNF 10 ng/ml
Description: as §2

MAPKAP-K1a/b [5] = assay: Activation of MAPKAP-K1a/b by TNF in HeLa cells; format: cell-based; conditions: 50 μM PD 98059, 10 μM SB 203580
Description: as §2

MSK1 [6] = assay: NGF-induced activation of MSK1 in PC12 cells; conditions: 50 μM PD 98059, 10 μM SB 203580, NGF 30 ng/ml 15 min
MSK1 [7] = assay: Activation of transfected Flag-MSK1 in 293 cells; format: cell-based, human; conditions: for UV-induced activation of transfected MSK1 / activation of transfected MSK1 by TPA: 50 μM PD 98059 or 10 μM SB 203580
Procedure: FIG. 6. Effect of mutation of MSK1 on activation by TPA and UV in 293 cells. 293 cells were transiently transfected with DNA constructs expressing Flag epitope tagged wild type MSK1, N-terminal (NT) “kinase dead” MSK1 and C-terminal (CT) “kinase dead” MSK1. […] The cells were lysed and the MSK1 was immunoprecipitated from the lysates and assayed with Crosstide.
Transfection of MSK1 into 293 cells. 293 cells were cultured on 10 cm diameter dishes and transfected with the pCMV5 vector encoding the Flag epitope tagged MSK1 constructs using a modified calcium phosphate method (Alessi et al., 1996b). 24 h post-transfection, the cells were deprived of serum for 16 h, stimulated with TPA or exposed to UV radiation, the cells were then lysed in 1 ml of ice cold Buffer A, centrifuged at 13,000×g for 5 min, and the Flag tagged MSK1 protein immunoprecipitated from aliquots of lysate (containing 25 μg protein) using 2 μg of FLAG antibody coupled to 5 (1 of Protein G-Sepharose.
Immunoprecipitates were incubated, washed and assayed for MSK1 activity as described above.

MAPK = conditions: PC12 cells expressing high levels of the NGF receptor (Alessi et al., 1995); cited from earlier work
MAPKAP-K1 [8] = assay: LPS-induced activation of MAPKAP-K1 in RAW 264 macrophages; format: cell-based, mouse; conditions: LPS 100 ng/ml 1 h, 10 μM UO 126, 5 TM Ro 318220
[9] = target: cyclic AMP dependent protein kinase (Homo sapiens, UniProt P17612); conditions: 10 μM Ro 318220 (Davis et al., 1989); cited from earlier work
MAPKAP-K2 [10] = target: T1, MAPKAP-K2 (Homo sapiens, UniProt P49137); assay: Effect of Ro 318220 on MAPKAP-K2 in vitro; format: biochemical; conditions: even at 10 μM
T1 construct: GST; made in house; host or cells: bacteria
T1 sequence (P49137 46-400 limits assumed): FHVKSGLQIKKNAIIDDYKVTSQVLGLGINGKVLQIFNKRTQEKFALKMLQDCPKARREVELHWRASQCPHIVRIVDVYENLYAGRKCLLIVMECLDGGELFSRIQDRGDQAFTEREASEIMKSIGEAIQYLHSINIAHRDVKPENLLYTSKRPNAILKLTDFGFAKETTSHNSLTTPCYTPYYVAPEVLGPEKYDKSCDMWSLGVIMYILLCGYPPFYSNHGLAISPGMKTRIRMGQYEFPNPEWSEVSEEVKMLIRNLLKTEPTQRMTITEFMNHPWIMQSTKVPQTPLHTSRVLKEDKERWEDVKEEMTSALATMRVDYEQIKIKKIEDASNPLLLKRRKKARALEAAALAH
Procedure: (§3) FIG. 9. Effect of Ro 318220 on the activity of MSK1. (A) Effect of Ro 318220 on GST-MSK1 (closed circles), mixed PKC isoforms (open circles) GST-MAPKAP-K1b and MAPKAP-K2 (open triangles) in vitro. […] The error for each point is ±10%. […] The cells were lysed MAPKAP-K2 was immunoprecipitated and assayed. […] (C) as above except that 293 cells were incubated for 2 h in 32phosphate (0.1 mCi/ml) before treatment with inhibitors. Cells were then exposed to either UV radiation (200 J/m2) or left untreated (−), incubated for a further 20 min in the continued presence of inhibitors. Following cell lysis, HSP27 was immunoprecipitated from cell extracts (Cuenda et al., 1995) run on a 15% polyacrylamide gel and autoradiographed.

MAPKAP-K2 [11] = assay: Activation of MAPKAP-K2 by TNF in HeLa cells; format: cell-based
Description: as §2

MAPKAP-K2 [12] = assay: LPS-induced activation of MAPKAP-K2 in RAW 264 macrophages; format: cell-based, mouse; conditions: LPS 100 ng/ml 1 h, 10 μM SB 203580, 5 TM Ro 318220
MSK1 [13] = target: MSK1 (Homo sapiens, UniProt O75582); assay: Effect of Ro 318220 on GST-MSK1 activity in vitro; format: biochemical; conditions: compared with PKC isoforms and MAPKAP-K1a/b
MSK1 (Homo sapiens, UniProt O75582), sequence (O75582 whole entry, canonical isoform): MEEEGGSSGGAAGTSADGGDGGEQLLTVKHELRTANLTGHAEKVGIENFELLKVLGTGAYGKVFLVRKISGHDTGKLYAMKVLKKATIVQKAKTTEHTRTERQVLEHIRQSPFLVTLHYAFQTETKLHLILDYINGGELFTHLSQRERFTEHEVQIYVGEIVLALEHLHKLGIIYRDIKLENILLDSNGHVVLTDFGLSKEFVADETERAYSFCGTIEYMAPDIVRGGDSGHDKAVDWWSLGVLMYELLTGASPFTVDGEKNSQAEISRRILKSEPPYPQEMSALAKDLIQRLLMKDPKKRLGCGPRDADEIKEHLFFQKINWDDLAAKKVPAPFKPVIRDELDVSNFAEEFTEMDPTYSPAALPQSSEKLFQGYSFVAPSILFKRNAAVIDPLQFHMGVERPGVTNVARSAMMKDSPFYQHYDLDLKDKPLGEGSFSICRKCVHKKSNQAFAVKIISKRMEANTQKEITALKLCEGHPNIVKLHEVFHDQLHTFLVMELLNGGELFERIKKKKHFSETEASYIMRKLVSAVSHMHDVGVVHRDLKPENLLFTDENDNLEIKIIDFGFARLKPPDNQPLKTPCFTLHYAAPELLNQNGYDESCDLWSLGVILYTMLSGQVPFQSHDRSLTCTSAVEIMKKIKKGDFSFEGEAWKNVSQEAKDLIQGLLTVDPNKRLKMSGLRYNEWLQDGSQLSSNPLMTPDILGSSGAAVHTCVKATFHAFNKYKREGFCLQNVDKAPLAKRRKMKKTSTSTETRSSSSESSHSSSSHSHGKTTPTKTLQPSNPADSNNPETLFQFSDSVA

PKC isoforms = assay: Effect of Ro 318220 on mixed PKC isoforms in vitro; format: biochemical; conditions: Davis et al., 1989, Alessi 1997, FIG. 9A
Procedure: as §3

MAPKAP-K1a/b [14] = target: T2, MAPKAP-K1a/b (Oryctolagus cuniculus, UniProt A0A5F9C4L9); assay: Effect of Ro 318220 on MAPKAP-K1a/b in vitro; format: biochemical; conditions: Alessi 1997, FIG. 9A
T2 construct: GST
T2 sequence (A0A5F9C4L9 1-740): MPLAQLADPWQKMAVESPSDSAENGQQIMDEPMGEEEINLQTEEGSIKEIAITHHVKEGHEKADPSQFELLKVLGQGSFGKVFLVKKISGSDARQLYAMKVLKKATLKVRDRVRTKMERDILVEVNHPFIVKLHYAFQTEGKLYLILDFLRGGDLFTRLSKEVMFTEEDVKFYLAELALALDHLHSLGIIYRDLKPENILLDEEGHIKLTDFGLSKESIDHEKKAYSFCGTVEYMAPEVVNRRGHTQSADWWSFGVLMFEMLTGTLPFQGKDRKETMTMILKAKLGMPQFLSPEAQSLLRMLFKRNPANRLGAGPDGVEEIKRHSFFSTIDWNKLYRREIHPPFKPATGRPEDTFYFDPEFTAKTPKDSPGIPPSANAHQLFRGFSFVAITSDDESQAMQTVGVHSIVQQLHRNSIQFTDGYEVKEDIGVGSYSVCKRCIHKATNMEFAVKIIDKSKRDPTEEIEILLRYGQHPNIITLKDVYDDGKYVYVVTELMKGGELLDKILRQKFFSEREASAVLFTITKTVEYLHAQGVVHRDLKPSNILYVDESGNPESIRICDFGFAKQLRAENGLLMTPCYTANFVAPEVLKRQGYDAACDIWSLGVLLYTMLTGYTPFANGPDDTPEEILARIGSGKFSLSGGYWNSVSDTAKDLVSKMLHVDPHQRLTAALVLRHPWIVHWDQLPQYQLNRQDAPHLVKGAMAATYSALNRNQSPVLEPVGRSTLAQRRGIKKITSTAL
Procedure: as §3

MAPKAP-K2 [15] = assay: Activation of MAPKAP-K2 in SK-N-MC cells; format: cell-based; conditions: 50 μM PD 98059, 10 μM SB 203580, 5 μM Ro 318220
Procedure: as §1, §2

MAPKAP-K2 [16] = assay: Activation of MAPKAP-K2 in 293 cells; format: cell-based, human; conditions: 50 μM PD 98059 or 10 μM SB 203580
Procedure: as §3, §2

SMILES	NGF-induced activation of MAPKAP-K1 (MAPKAP-K1 [1])	activation of MAPKAP-K1a/b by EGF and TPA (MAPKAP-K1a/b [2])	activation of MSK1 by TNF after 5 min (MSK1 [4])	activation of MSK1 by TNF after 15 min (MSK1 [4])	NGF-induced activation of MSK1 (MSK1 [6])	UV-induced activation of transfected MSK1 (MSK1 [7])	activation of transfected MSK1 by TPA (MSK1 [7])	LPS-induced activation of MAPKAP-K2 (MAPKAP-K2 [12])	activation of MAPKAP-K2 by sodium arsenite and FGF (MAPKAP-K2 [15])	further results
COc1cccc(-c2cc(=O)c3ccccc3o2)c1N [PD 98059]	only partially inhibited	largely suppressed	unaffected	partially blocked	not significantly affected	unaffected	prevented	–	–	activation of MAPKAP-K1 by FGF (MAPKAP-K1 [3]): abolished; activation of MAPKAP-K1a/b after 15 min of TNF stimulation (MAPKAP-K1a/b [5]): suppressed; activation of transfected wild type MSK1 by EGF, basic FGF and serum (MSK1 [7]; data not shown): prevented; NGF-induced activation of MAPK (MAPK): only partially suppresses
Cn1cc(C2=C(c3cn(CCCSC(=N)N)c4ccccc34)C(=O)NC2=O)c2ccccc21 [Ro 318220]	–	–	–	–	–	–	–	does not affect	does not affect	LPS-induced activation of MAPKAP-K1 (MAPKAP-K1 [8]): does not affect; inhibition of cyclic AMP dependent protein kinase [9]: not significantly inhibited; inhibition of MAPKAP-K2 in vitro (MAPKAP-K2 [10]): does not significantly inhibit; activation of MAPKAP-K2 by TNF (MAPKAP-K2 [11]; 5 μM Ro 318220, data not shown): unaffected; inhibition of MSK1 activity in vitro (MSK1 [13]): equally potent inhibitor; also recorded: reversible inhibitor; IC50 (PKC isoforms): 0.01 to 0.03 µM; IC50 (MAPKAP-K1a/b [14]): 0.01 to 0.03 µM
C[S+]([O-])c1ccc(-c2nc(-c3ccncc3)c(-c3ccc(F)cc3)[nH]2)cc1 (stereo not shown) [SB 203580]	unaffected	but not by SB 203580	completely inhibited	partially blocked	not significantly affected	prevented	but not by SB 203580	completely block	completely prevented	activation of MAPKAP-K2 by stressful stimuli (MAPKAP-K2 [16]): prevented; activation of MAPKAP-K2 after 5 min of TNF stimulation (MAPKAP-K2 [11]; 50 μM PD 98059, 10 μM SB 203580): inhibited
